PMC4767496 (Oncotarget, 2015)

Key:
metastatic melanoma = conditions: 38 or 120 patients, phase 3 trial, metastatic melanoma progressed after ipilimumab; cited from earlier work
[1] = Plasma pharmacokinetics of lenvatinib; conditions: human, in vivo
Method: Tmax, Cmax, Ctrough, AUC0-t, CL (total body clearance from plasma), Vss (volume of distribution at steady […]), and t1/2 were evaluated.
Baseline and demographic variables including age, gender, race, height, weight, and ECOG performance score were summarized using descriptive statistics. […] Pearson and Spearman correlation coefficients were calculated between pharmacokinetic parameters and serum biomarkers at different time points compared with baseline to examine the correlation between drug exposure and biomarkers. Univariate and multivariate Cox proportional hazards models and log-rank tests were used to examine the relationship between PFS and baseline (and change from baseline) concentrations in angiogenesis and apoptosis biomarkers. Cumulative chi-square test was used to examine the correlation between mutation/serum biomarkers and best overall response. Pearson and Spearman correlation coefficients were also calculated between percent MTS (defined as percent change in sum of longest diameter from baseline to nadir using RECIST criteria) and serum biomarkers at different time points compared with baseline.

solid-tumor patients = conditions: phase 1 studies; cited from earlier work

Row | Compound | Objective response rate (metastatic melanoma) | AUC(0-t) ([1]; Geometric mean (%CV), DL1 lenvatinib 20 mg + TMZ 100 mg/m2, Cycle 1/Day 1, n = 6) | AUC(0-t) ([1]; Geometric mean (%CV), DL1 lenvatinib 20 mg + TMZ 100 mg/m2, Cycle 2/Day 1, n = 4) | AUC(0-t) ([1]; Mean (SD), DL3 lenvatinib 24 mg + TMZ 150 mg/m2, Cycle 1/Day 1, n = 22) | AUC(0-t) ([1]; Mean (SD), DL3 lenvatinib 24 mg + TMZ 150 mg/m2, Cycle 2/Day 1, n = 18) | Tmax ([1]; Median tmax, range across the cohorts) | Maximum tolerated dose (MTD) (solid-tumor patients)
1 | nivolumab: anti-PD1 receptor immune checkpoint inhibitor monoclonal antibody | 31.7% |  |  |  |  |  | 
2 | COc1cc2nccc(Oc3ccc(NC(=O)NC4CC4)c(Cl)c3)c2cc1C(N)=O [Lenvatinib] |  | 3120 ng·h/mL | 4120 ng·h/mL | 3940 ng·h/mL | 4740 ng·h/mL | 1 to 8 h | 25 mg/day
